Data published in US20230135093A1, “TRIAZOLYL DERIVATIVES AS GABA A ALPHA5 PAM” (Hoffmann-La Roche Inc., priority 2020, published 2023).

Experiments:
h-GABA-A α5β3γ2 [1] = target: T1, h-GABA-A α5β3γ2 (Homo sapiens, UniProt P18507+P31644); experiment: [3H]flumazenil competition binding assay on membranes of HEK293 cells expressing GABAA receptors
T1 construct: expressed in transfected cells; host or cells: Xenopus laevis oocytes, micro-injected with subunit RNA
Procedure, shortened: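 Membranes from HEK293 cells transiently expressing human α5β3γ2 were incubated 1 h at 4 °C in Krebs-tris pH 7.5 with 0.5 nM [3H]flumazenil and test compound. Nonspecific binding was set with 10^−5 M diazepam. Bound radioactivity was filtered and counted. Ki is the mean of two determinations.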

h-GABA-A α5β3γ2 [2] = target: T1, h-GABA-A α5β3γ2; experiment: Two-electrode voltage clamp electrophysiology in Xenopus oocytes expressing GABAA receptors (modulation of GABA EC20 current); type: cell-based
Procedure, shortened: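 Oocytes injected with α5β3γ2 subunit RNA, recorded 3-5 days later by two-electrode clamp at −80 mV, room temperature, pH 7.4. The compound, at ~30-fold its Ki, was co-applied during a second GABA EC20 pulse. Efficacy was the extremum of the point-by-point second/first current ratio, given as % modulation (100×(fold−1)); n≥3 oocytes.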

[3] = Table 1, displacement of [3H]-Flumazenil (0.5 nM), HEK293 cells expressing human receptors, means of two determinations
[4] = Table 1, % modulation of GABA EC20 = 100*(Fold increase-1)
[5] = Table 1, Xenopus oocytes, GABA EC20, test compound at approximatively 30 fold its Ki
[6] = Table 2, reference compounds, displacement of [3H]-Flumazenil
[7] = Table 2, reference compounds, % modulation of GABA EC20
[8] = Table 2, reference compounds, GABAA α5β3γ2 overexpressing oocytes, GABA EC20

Ki (h-GABA-A α5β3γ2 [1]; [3]) [nM]	Efficacy (GABA) % (h-GABA-A α5β3γ2 [2]; [4]) [%]	Fold increase h-GABA-A α5β3γ2 oocyte (h-GABA-A α5β3γ2 [2]; [5])	Ki (h-GABA-A α5β3γ2 [1]; [6]) [nM]	Efficacy (GABA) % (h-GABA-A α5β3γ2 [2]; [7]) [%]	Fold increase h-GABA-A α5β3γ2 oocyte (h-GABA-A α5β3γ2 [2]; [8])	SMILES
48.5	98	1.98	–	–	–	Cc1ccnn1C1CN(c2cnn(Cc3c(-c4ccc(Cl)cc4F)nnn3C)c(=O)c2)C1 [Example 113, 2-[[5-(4-chloro-2-fluoro-phenyl)-3-methyl-triazol-4-yl]methyl]-5-[3-(5-methylpyrazol-1-yl)azetidin-1-yl]pyridazin-3-one]
3.6	154	–	–	–	–	COc1ncc(-c2cnn(Cc3c(-c4ccc(C)nn4)nnn3C)c(=O)c2)cc1Cl [Example 114, 5-(5-chloro-6-methoxy-3-pyridyl)-2-[[3-methyl-5-(6-methylpyridazin-3-yl)triazol-4-yl]methyl]pyridazin-3-one]
47.4	74	1.74	–	–	–	CCOC1CN(c2cnn(Cc3c(-c4ncc(C(F)(F)F)cn4)nnn3C)c(=O)c2)C1 [Example 115, 5-(3-ethoxyazetidin-1-yl)-2-[[3-methyl-5-[5-(trifluoromethyl)pyrimidin-2-yl]triazol-4-yl]methyl]pyridazin-3-one]
66.1	48	1.48	–	–	–	CC(C)OC1CN(c2cnn(Cc3c(-c4ncc(C(F)(F)F)cn4)nnn3C)c(=O)c2)C1 [Example 116, 5-(3-isopropoxyazetidin-1-yl)-2-[[3-methyl-5-[5-(trifluoromethyl)pyrimidin-2-yl]triazol-4-yl]methyl]pyridazin-3-one]
15.4	135	2.35	–	–	–	COc1ncc(-c2cnn(Cc3c(-c4ncc(C(F)(F)F)cn4)nnn3C)c(=O)c2)cc1Cl [Example 118, 5-(5-chloro-6-methoxypyridin-3-yl)-2-((1-methyl-4-(5-(trifluoromethyl)pyrimidin-2-yl)-1H-1,2,3-triazol-5-yl)methyl)pyridazin-3(2H)-one]
29.6	86	1.86	–	–	–	Cn1nnc(-c2ncc(C(F)(F)F)cn2)c1Cn1ncc(N2CC(OCC(F)F)C2)cc1=O [Example 119, 5-[3-(2,2-difluoro-ethoxy)azetidin-1-yl]-2-[[3-methyl-5-[5-(trifluoromethyl)pyrimidin-2-yl]triazol-4-yl]methyl]pyridazin-3-one]
27	78	1.78	–	–	–	Cn1nnc(-c2ncc(C(F)(F)F)cn2)c1Cn1ncc(N2CC(OCC(F)(F)F)C2)cc1=O [Example 120, 2-[[3-methyl-5-[5-(trifluoromethyl)pyrimidin-2-yl]triazol-4-yl]methyl]-5-[3-(2,2,2-trifluoro-ethoxy)azetidin-1-yl]pyridazin-3-one]
24.8	89	1.89	–	–	–	Cn1nnc(-c2ncc(C(F)(F)F)cn2)c1Cn1ncc(N2CC(OC(F)F)C2)cc1=O [Example 121, 5-[3-(difluoromethoxy)azetidin-1-yl]-2-[[3-methyl-5-[5-(trifluoromethyl)pyrimidin-2-yl]triazol-4-yl]methyl]pyridazin-3-one]
55.5	141	2.41	–	–	–	CCn1nnc(-c2ccc(Cl)cc2F)c1Cn1ncc(N2CC3(CC[C@@H](C)CO3)C2)cc1=O [Example 122, (R)-2-((4-(4-chloro-2-fluorophenyl)-1-ethyl-1H-1,2,3-triazol-5-yl)methyl)-5-(7-methyl-5-oxa-2-azaspiro[3.5]nonan-2-yl)pyridazin-3(2H)-one]
7.6	148	2.48	–	–	–	COc1ncc(-c2cnn(Cc3c(-c4ccc(C(F)(F)F)nn4)nnn3C)c(=O)c2)cc1Cl [Example 123, 5-(5-chloro-6-methoxypyridin-3-yl)-2-((1-methyl-4-(6-(trifluoro-methyl)pyridazin-3-yl)-1H-1,2,3-triazol-5-yl)methyl)pyridazin-3(2H)-one]
10.2	105	2.05	–	–	–	CCn1nnc(-c2ccc(Cl)cc2F)c1Cn1ncc(N2CC3(CC[C@H](F)CO3)C2)cc1=O [Example 124, (S)-2-((4-(4-chloro-2-fluorophenyl)-1-ethyl-1H-1,2,3-triazol-5-yl)methyl)-5-(7-fluoro-5-oxa-2-azaspiro[3.5]nonan-2-yl)pyridazin-3(2H)-one]
25.3	69	1.69	–	–	–	CCn1nnc(-c2ccc(Cl)cc2F)c1Cn1ncc(N2CC3(CC[C@@H](F)CO3)C2)cc1=O [Example 125, (R)-2-((4-(4-chloro-2-fluorophenyl)-1-ethyl-1H-1,2,3-triazol-5-yl)methyl)-5-(7-fluoro-5-oxa-2-azaspiro[3.5]nonan-2-yl)pyridazin-3(2H)-one]
17.5	61	1.61	–	–	–	Cn1nnc(-c2ccc(Cl)cc2F)c1Cn1ncc(N2CC3(CC[C@H](F)CO3)C2)cc1=O [Example 126, (S)-2-((4-(4-chloro-2-fluorophenyl)-1-methyl-1H-1,2,3-triazol-5-yl)methyl)-5-(7-fluoro-5-oxa-2-azaspiro[3.5]nonan-2-yl)pyridazin-3(2H)-one]
–	–	–	58.4	−28	0.72	Cn1nnc(-c2ccccc2F)c1COc1ccc(-n2cnc(C(F)F)c2)nn1 [RO-007, reference compound]
–	–	–	53.2	−38	0.62	Cn1nnc(-c2ccc(F)cc2)c1COc1ccc(C(=O)NN2CCOCC2)nn1 [RO-045, reference compound]
–	–	–	33.4	−15	0.85	Cn1nnc(-c2ccc(F)cn2)c1COc1ccc(C(=O)NN2CCOCC2)nn1 [RO-052, reference compound]

SMILES	Ki (h-GABA-A α5β3γ2 [1]; [3]) [nM]	Efficacy (GABA) % (h-GABA-A α5β3γ2 [2]; [4]) [%]	Fold increase h-GABA-A α5β3γ2 oocyte (h-GABA-A α5β3γ2 [2]; [5])	Ki (h-GABA-A α5β3γ2 [1]; [6]) [nM]	Efficacy (GABA) % (h-GABA-A α5β3γ2 [2]; [7]) [%]	Fold increase h-GABA-A α5β3γ2 oocyte (h-GABA-A α5β3γ2 [2]; [8])
Cn1nnc(-c2ncc(C(F)(F)F)cn2)c1Cn1ncc(N2CC(OC3CCC3)C2)cc1=O [Example 117, 5-[3-(cyclo-butoxy)azetidin-1-yl]-2-[[3-methyl-5-[5-(trifluoromethyl)pyrimidin-2-yl]triazol-4-yl]methyl]pyridazin-3-one]	52.7	87	1.87	–	–	–
